# Results: the supplement of paper PMC10307832
# Key:
# Experiment in all cases: relative viability (nuclei count vs DMSO), 5 days (fraction); higher = more cells survive
# Everolimus + OSI-027 = compound: CO[C@H]1C[C@@H]2CC[C@@H](C)[C@@](O)(O2)C(=O)C(=O)N2CCCC[C@H]2C(=O)O[C@H]([C@H](C)C[C@@H]2CC[C@@H](OCCO)[C@H](OC)C2)CC(=O)[C@H](C)/C=C(\C)[C@@H](O)[C@@H](OC)C(=O)[C@H](C)C[C@H](C)/C=C/C=C/C=C/1C [Everolimus] + COc1cccc2cc(-c3nc([C@H]4CC[C@H](C(=O)O)CC4)n4ncnc(N)c34)[nH]c12 [OSI-027] (partner 0.5 µM)
# How it was run: (§1)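 One day after seeding in 1536-well plates, lung cancer cell lines were dosed by pin tool. Dosing was either single-drug or a fixed anchor-drug dose plus five library-drug doses (not always all listed) in √10 steps. After 5 days, nuclei were stained in one fix-and-stain step and counted on 4× images, and relative viability is the nuclei count of treated wells over that of vehicle wells, given as the median of duplicate plates.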
# Everolimus + Lapatinib = compound: CO[C@H]1C[C@@H]2CC[C@@H](C)[C@@](O)(O2)C(=O)C(=O)N2CCCC[C@H]2C(=O)O[C@H]([C@H](C)C[C@@H]2CC[C@@H](OCCO)[C@H](OC)C2)CC(=O)[C@H](C)/C=C(\C)[C@@H](O)[C@@H](OC)C(=O)[C@H](C)C[C@H](C)/C=C/C=C/C=C/1C [Everolimus] + CS(=O)(=O)CCNCc1ccc(-c2ccc3ncnc(Nc4ccc(OCc5cccc(F)c5)c(Cl)c4)c3c2)o1 [Lapatinib] (partner 2 µM)
# How it was run: as §1
# Everolimus + Linsitinib = compound: CO[C@H]1C[C@@H]2CC[C@@H](C)[C@@](O)(O2)C(=O)C(=O)N2CCCC[C@H]2C(=O)O[C@H]([C@H](C)C[C@@H]2CC[C@@H](OCCO)[C@H](OC)C2)CC(=O)[C@H](C)/C=C(\C)[C@@H](O)[C@@H](OC)C(=O)[C@H](C)C[C@H](C)/C=C/C=C/C=C/1C [Everolimus] + C[C@]1(O)C[C@@H](c2nc(-c3ccc4ccc(-c5ccccc5)nc4c3)c3c(N)nccn32)C1 [Linsitinib] (partner 1 µM)
# How it was run: as §1
# Everolimus + Alpelisib = compound: CO[C@H]1C[C@@H]2CC[C@@H](C)[C@@](O)(O2)C(=O)C(=O)N2CCCC[C@H]2C(=O)O[C@H]([C@H](C)C[C@@H]2CC[C@@H](OCCO)[C@H](OC)C2)CC(=O)[C@H](C)/C=C(\C)[C@@H](O)[C@@H](OC)C(=O)[C@H](C)C[C@H](C)/C=C/C=C/C=C/1C [Everolimus] + Cc1nc(NC(=O)N2CCC[C@H]2C(N)=O)sc1-c1ccnc(C(C)(C)C(F)(F)F)c1 [Alpelisib] (partner 2 µM)
# How it was run: as §1
Cell Line,relative viability (Everolimus + OSI-027; first compound 0.01 µM),relative viability (Everolimus + OSI-027; first compound 0.03162 µM),relative viability (Everolimus + OSI-027; first compound 0.1 µM),relative viability (Everolimus + OSI-027; first compound 0.3162 µM),relative viability (Everolimus + OSI-027; first compound 1 µM),relative viability (Everolimus + Lapatinib; first compound 0.01 µM),relative viability (Everolimus + Lapatinib; first compound 0.03162 µM),relative viability (Everolimus + Lapatinib; first compound 0.1 µM),relative viability (Everolimus + Lapatinib; first compound 0.3162 µM),relative viability (Everolimus + Lapatinib; first compound 1 µM),relative viability (Everolimus + Linsitinib; first compound 0.01 µM),relative viability (Everolimus + Linsitinib; first compound 0.03162 µM),relative viability (Everolimus + Linsitinib; first compound 0.1 µM),relative viability (Everolimus + Linsitinib; first compound 0.3162 µM),relative viability (Everolimus + Linsitinib; first compound 1 µM),relative viability (Everolimus + Alpelisib; first compound 0.01 µM),relative viability (Everolimus + Alpelisib; first compound 0.03162 µM),relative viability (Everolimus + Alpelisib; first compound 0.1 µM),relative viability (Everolimus + Alpelisib; first compound 0.3162 µM),relative viability (Everolimus + Alpelisib; first compound 1 µM)
LC-2-ad,0.669,0.7,0.602,0.618,0.569,0.924,0.874,0.941,0.931,1.08,0.75,0.744,0.781,0.766,0.702,0.752,0.885,0.754,0.737,0.818
LCLC-97TM1,0.455,0.362,0.36,0.337,0.458,0.611,0.869,0.759,0.817,0.852,0.141,0.142,0.147,0.129,0.151,0.204,0.178,0.164,0.167,0.139
LK-2,0.152,0.153,0.167,0.162,0.172,0.664,0.533,0.787,0.471,0.449,0.426,0.497,0.286,0.282,0.198,0.827,,0.607,0.568,0.556
LOU-NH91,0.529,0.57,0.531,0.524,0.516,0.553,0.56,0.58,0.615,0.546,0.794,0.644,0.718,0.585,0.66,0.64,0.551,0.543,0.564,0.52
LU99A,0.234,0.243,0.245,0.248,0.241,0.621,0.548,0.573,0.52,0.55,0.342,0.345,0.295,0.283,0.334,0.284,0.278,0.294,0.259,0.315
LXF-289,0.654,0.604,0.529,0.572,0.576,0.908,0.951,0.889,0.889,0.899,0.984,0.972,0.913,1.02,0.917,0.993,0.967,0.901,0.973,0.868
NCI-H23,0.382,0.35,0.362,0.41,0.378,0.736,0.685,0.491,0.695,0.693,0.288,0.3,0.244,0.251,0.271,0.355,0.326,0.285,0.281,0.309
NCI-H322M,0.425,0.501,0.473,0.433,0.495,0.547,0.545,0.601,0.526,0.508,0.87,0.695,0.683,0.739,0.645,0.686,0.577,0.578,0.585,0.58
NCI-H358,0.347,0.337,0.336,0.34,0.378,0.309,0.338,0.377,0.345,0.295,0.421,0.533,0.544,0.388,0.347,0.504,0.362,0.438,0.445,0.402
NCI-H460,0.389,0.503,0.304,0.314,0.333,0.912,0.919,0.805,0.866,0.84,0.42,0.45,0.365,0.301,0.381,0.22,0.298,0.199,0.271,0.168
NCI-H520,0.21,0.179,0.218,0.185,0.193,0.379,0.39,0.313,0.285,0.405,0.533,0.441,0.532,0.343,0.372,0.434,0.474,0.335,0.296,0.257
NCI-H596,0.506,0.471,0.417,0.45,0.457,0.715,0.677,0.545,0.676,0.677,0.653,0.651,0.53,0.532,0.515,0.386,0.297,0.347,0.382,0.37
NCI-H647,0.363,0.401,0.343,0.449,0.489,0.583,0.562,0.505,0.536,0.87,0.629,0.76,0.58,0.647,0.653,0.626,0.534,0.449,0.429,0.757
NCI-H650,0.372,,0.446,0.392,0.363,0.652,,0.716,0.598,0.479,0.53,,0.506,0.512,0.557,1.05,,0.752,0.592,0.587
NCI-H661,0.471,0.44,0.433,0.4,0.511,0.358,0.428,0.341,0.276,0.299,0.473,0.575,0.361,0.319,0.306,0.438,0.345,0.35,0.383,0.309
NCI-H727,0.425,0.392,0.467,0.345,0.444,0.435,0.543,0.402,0.527,0.561,0.207,0.2,0.203,0.291,0.362,0.399,0.328,0.266,0.308,0.364
NCI-H838,0.262,0.252,0.233,0.259,0.334,0.517,0.535,0.48,0.439,0.625,0.329,0.372,0.303,0.326,0.318,0.392,0.385,0.382,0.343,0.347
NCI-H1355,0.281,0.258,0.231,0.299,0.241,0.471,0.44,0.363,0.53,0.436,0.412,0.322,0.348,0.349,0.336,0.415,0.277,0.309,0.327,0.321
NCI-H1395,0.596,0.555,0.544,0.482,0.54,0.886,0.755,0.585,0.614,0.869,1,0.864,0.766,0.731,0.787,0.787,0.813,0.722,0.759,1.08
NCI-H1437,0.379,0.363,0.344,0.365,0.487,0.642,0.55,0.464,0.508,0.417,0.589,0.598,0.493,0.36,0.279,0.566,0.438,0.549,0.507,0.294
NCI-H1563,0.628,0.645,0.622,0.693,0.643,0.785,0.839,0.758,0.769,0.817,0.993,0.757,0.766,0.683,0.734,0.715,0.717,0.662,0.641,0.685
NCI-H1651,0.411,0.439,0.384,0.41,0.58,0.537,0.391,0.497,0.533,0.521,0.586,0.538,0.495,0.495,0.454,0.639,0.454,0.611,0.537,0.451
NCI-H1666,0.722,0.725,0.719,0.811,0.722,0.459,0.445,0.335,0.45,0.475,0.644,0.407,0.468,0.455,0.468,0.776,0.509,0.584,0.496,0.511
NCI-H1734,0.408,0.411,0.365,0.417,0.423,0.715,0.582,0.582,0.551,0.73,0.416,0.568,0.518,0.467,0.575,0.449,0.398,0.466,0.399,0.463
NCI-H1755,0.655,0.63,0.573,0.647,0.593,0.866,0.964,0.769,0.876,0.77,0.883,0.717,0.665,0.727,0.658,0.646,0.659,0.653,0.643,0.611
NCI-H1792,0.646,0.489,0.427,0.421,0.362,0.637,0.656,0.679,0.593,0.734,0.449,0.38,0.202,0.148,0.159,0.618,0.5,0.312,0.222,0.212
NCI-H1793,0.236,0.189,0.185,0.21,0.185,0.316,0.337,0.378,0.352,0.278,0.299,0.188,0.333,0.311,0.246,0.314,0.225,0.298,0.23,0.267
NCI-H1915,0.531,0.516,0.45,0.512,0.49,0.903,0.904,0.877,0.826,0.88,0.994,0.973,0.935,0.914,0.827,0.806,0.833,0.784,0.732,0.723
NCI-H1944,0.365,0.305,0.294,0.358,0.326,0.633,0.669,0.617,0.604,0.541,0.84,0.824,0.684,0.754,0.715,0.592,0.565,0.593,0.564,0.562
